For this experiment, the system named is GR. The experiment in a line: Western blot of GR in hippocampus, chronic cocaine ± 5-MeO-DMT. In kind it is in vivo, Male Wistar rats. An excerpt:
Male Wistar rats aged 7 weeks were acclimatized to the facility for 1 week prior to the beginning of the study. […] Animals were euthanized 23- or 119-hours following vehicle or 5-MeO-DMT administration.
Following euthanasia brain regions of interest were isolated. Briefly, the olfactory bulbs were removed before the brain was placed in a rat brain matrix (FIG. 2A). Sterile blades were inserted at positions 2 and 3 (FIG. 2B) to extract a coronal slice containing the Bregma+˜0.2-+˜2.2 coordinates (FIG. 2C). From this tissue slice a blunted 12 G needle was used to punch dissect the NAc and dorsal striatum (DS) (FIG. 2D-2E) identified using the rat brain atlas (Panxinos and Watson 2nd edition). The PFC, hippocampus (Hip) and amygdala (Amyg) were then blunt dissected (FIG. 3A-3D). All regions were frozen in liquid nitrogen and stored at −80° C. until processed.
These treatment groups were used for the molecular assessment of addiction-linked markers.
Determination of protein concentration—a bicinchoninic acid assay (BCA, ThermoFisher) was conducted to determine the total protein concentration in tissue lysates following manufacturer's instructions. […] For tissue lysates a 1:10 dilution was performed with cell lysis buffer to ensure absorbance values lay within the working range established by the standards. […] The plate was covered and incubated for 30 mins at 37° C. before absorbance was read at 562 nm on a plate reader (SpectraMax M3). The absorbance values were used to form a standard curve of known protein concentrations and protein concentration of samples were derived using the equation of the line. […]
SDS-PAGE and Western Blotting—Following equalisation of protein concentrations, 6× sample loading buffer (15% SDS, 15% […], 50% glycerol, 0.01% bromophenol blue, […]) was added to each sample using a dilution factor of 1:5 of the total volumes before boiling at 100° C. for 5 mins. […] The percentage of acrylamide in the resolving or stacking gel was determined by the molecular weight of the protein of interest. […]

This is an account of results in patent US20240299353A1, “COMPOSITIONS AND METHODS FOR TREATING […] 5-MEO-DMT” (Alvarius Pharmaceuticals Ltd., priority 2021, published 2024).

Turning to `COC(=O)[C@H]1[C@@H](OC(=O)c2ccccc2)C[C@@H]2CC[C@H]1N2C.Cl` [cocaine, cocaine hydrochloride, reference compound], the GR expression entry is “significantly affected GR expression” (24 h, cocaine, p=0.0434, no post hoc differences) and “not detectable” (120 h, cocaine effect). `COc1ccc2[nH]cc(CCN(C)C)c2c1` [5-MeO-DMT, 5-methoxy-N,N-dimethyltryptamine]: the GR expression result (24 h and 120 h, 5-MeO-DMT) is “no 5-Meo-associated regulation of GR”.
